Molecular target: MEK1-C222 (Homo sapiens, UniProt Q02750, S222C/C277S/C376S)
Assay: differential scanning fluorimetry
Type: binding
Settings: thermal shift with and without Mg2+; values only in figure

In the case of `Nc1ncnc2c1ncn2[C@@H]1O[C@H](COP(=O)(O)OP(=O)(O)OP(O)(O)=S)[C@@H](O)[C@H]1O` [ATPγS], the differential scanning fluorimetry is reported as “to form MEK1•ATP(±Mg) and MEK1•ATPγS(±Mg)”.
